Holding throughout (experiment): relative viability (nuclei count vs DMSO), 5 days (fraction); higher = more cells survive
Compound in the experiment “Seliciclib + Bortezomib”: CC[C@H](CO)Nc1nc(NCc2ccccc2)c2ncn(C(C)C)c2n1 [Seliciclib] + CC(C)C[C@H](NC(=O)[C@H](Cc1ccccc1)NC(=O)c1cnccn1)B(O)O [Bortezomib] (partner 0.002 µM)
Put shortly:
(§1)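 Relative viability is defined as nuclei in treated wells over nuclei in vehicle wells. Duplicate plates were run and medians reported. Lung cancer cell lines in 1536-well plates were dosed by pin tool one day after seeding, with one drug or with a fixed anchor-drug dose plus five library-drug doses (not always all listed) in √10 steps, and nuclei were counted after 5 days.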

Compound in the experiment “Seliciclib + Alpelisib”: CC[C@H](CO)Nc1nc(NCc2ccccc2)c2ncn(C(C)C)c2n1 [Seliciclib] + Cc1nc(NC(=O)N2CCC[C@H]2C(N)=O)sc1-c1ccnc(C(C)(C)C(F)(F)F)c1 [Alpelisib] (partner 2 µM)
In short, it runs like this: as §1

Compound in the experiment “Seliciclib + Pemetrexed”: CC[C@H](CO)Nc1nc(NCc2ccccc2)c2ncn(C(C)C)c2n1 [Seliciclib] + Nc1nc2[nH]cc(CCc3ccc(C(=O)N[C@@H](CCC(=O)O)C(=O)O)cc3)c2c(=O)[nH]1 [Pemetrexed] (partner 0.2 µM)
In short, it runs like this:
as §1

Compound in the experiment “Seliciclib + Olaparib”: CC[C@H](CO)Nc1nc(NCc2ccccc2)c2ncn(C(C)C)c2n1 [Seliciclib] + O=C(c1cc(Cc2n[nH]c(=O)c3ccccc23)ccc1F)N1CCN(C(=O)C2CC2)CC1 [Olaparib] (partner 8 µM)
In short, it runs like this: as §1

For NCI-H3122, the relative viability was determined as 1.03 in the experiment with Seliciclib + Bortezomib (first compound 0.08 µM); 1.04 with Seliciclib + Bortezomib (first compound 0.253 µM); 0.995 in the experiment with Seliciclib + Bortezomib (first compound 0.8 µM); 0.973 with Seliciclib + Bortezomib (first compound 2.53 µM); 0.967 with Seliciclib + Bortezomib (first compound 8 µM); 0.762 with Seliciclib + Alpelisib (first compound 0.08 µM). The relative viability with Seliciclib + Alpelisib (first compound 0.253 µM) was determined as 0.763; in the experiment with Seliciclib + Alpelisib (first compound 0.8 µM) it was 0.753; with Seliciclib + Alpelisib (first compound 2.53 µM), 0.765; with Seliciclib + Alpelisib (first compound 8 µM), 0.777; in the experiment with Seliciclib + Pemetrexed (first compound 0.08 µM), 0.207; with Seliciclib + Pemetrexed (first compound 0.253 µM) it was 0.211. For the same cell line, the relative viability in the experiment with Seliciclib + Pemetrexed (first compound 0.8 µM) is 0.177; with Seliciclib + Pemetrexed (first compound 2.53 µM) it was 0.205; in the experiment with Seliciclib + Pemetrexed (first compound 8 µM), 0.228; with Seliciclib + Olaparib (first compound 0.08 µM), 0.632; in the experiment with Seliciclib + Olaparib (first compound 0.253 µM), 0.589; in the experiment with Seliciclib + Olaparib (first compound 0.8 µM), 0.62. In addition, the results for the relative viability with Seliciclib + Olaparib (first compound 2.53 µM) and with Seliciclib + Olaparib (first compound 8 µM) were 0.697 and 0.615, respectively.

As to PC-3 [JPC-3], the relative viability in the experiment with Seliciclib + Bortezomib (first compound 0.08 µM) is 0.895; with Seliciclib + Bortezomib (first compound 0.253 µM), 0.911; in the experiment with Seliciclib + Bortezomib (first compound 0.8 µM), 0.738; with Seliciclib + Bortezomib (first compound 2.53 µM), 0.695; with Seliciclib + Bortezomib (first compound 8 µM), 0.742; with Seliciclib + Alpelisib (first compound 0.08 µM) it was 1.02. The relative viability is 1.07 with Seliciclib + Alpelisib (first compound 0.253 µM); 0.968 in the experiment with Seliciclib + Alpelisib (first compound 0.8 µM); 0.997 with Seliciclib + Alpelisib (first compound 2.53 µM); 0.904 in the experiment with Seliciclib + Alpelisib (first compound 8 µM); 1.11 with Seliciclib + Pemetrexed (first compound 0.08 µM); 1.17 with Seliciclib + Pemetrexed (first compound 0.253 µM). For the same cell line, the relative viability in the experiment with Seliciclib + Pemetrexed (first compound 0.8 µM) was 1.08; in the experiment with Seliciclib + Pemetrexed (first compound 2.53 µM), 0.995; with Seliciclib + Pemetrexed (first compound 8 µM), 0.968; with Seliciclib + Olaparib (first compound 0.08 µM), 1.05; in the experiment with Seliciclib + Olaparib (first compound 0.253 µM), 1.25; in the experiment with Seliciclib + Olaparib (first compound 0.8 µM) it was 1.06. The relative viability in the experiment with Seliciclib + Olaparib (first compound 2.53 µM) stood at 1.1; in the experiment with Seliciclib + Olaparib (first compound 8 µM), 0.978.

On to PC-14, for which the relative viability with Seliciclib + Bortezomib (first compound 0.08 µM) stood at 0.832; with Seliciclib + Bortezomib (first compound 0.253 µM), 0.836; in the experiment with Seliciclib + Bortezomib (first compound 0.8 µM), 0.877; in the experiment with Seliciclib + Bortezomib (first compound 2.53 µM), 0.846; in the experiment with Seliciclib + Bortezomib (first compound 8 µM), 0.701; with Seliciclib + Alpelisib (first compound 0.08 µM) it was 0.86. Besides, the relative viability with Seliciclib + Alpelisib (first compound 0.253 µM) is 0.871; in the experiment with Seliciclib + Alpelisib (first compound 0.8 µM), 0.878; with Seliciclib + Alpelisib (first compound 2.53 µM) it was 0.909; with Seliciclib + Alpelisib (first compound 8 µM) it was 0.854; with Seliciclib + Pemetrexed (first compound 0.08 µM), 0.125; with Seliciclib + Pemetrexed (first compound 0.253 µM) it was 0.147. For the same cell line, the relative viability in the experiment with Seliciclib + Pemetrexed (first compound 0.8 µM) amounted to 0.166; with Seliciclib + Pemetrexed (first compound 2.53 µM), 0.143; in the experiment with Seliciclib + Pemetrexed (first compound 8 µM) it was 0.122; with Seliciclib + Olaparib (first compound 0.08 µM), 0.286; with Seliciclib + Olaparib (first compound 0.253 µM) it was 0.285; with Seliciclib + Olaparib (first compound 0.8 µM), 0.29. In addition, the relative viability in the experiment with Seliciclib + Olaparib (first compound 2.53 µM) was determined as 0.343; with Seliciclib + Olaparib (first compound 8 µM), 0.266.

Take RERF-LC-KJ: the relative viability with Seliciclib + Bortezomib (first compound 0.08 µM) worked out at 1.04; with Seliciclib + Bortezomib (first compound 0.253 µM), 1.02; with Seliciclib + Bortezomib (first compound 0.8 µM) it was 1.09; in the experiment with Seliciclib + Bortezomib (first compound 2.53 µM), 1.14; with Seliciclib + Bortezomib (first compound 8 µM) it was 1.07; with Seliciclib + Alpelisib (first compound 0.08 µM), 0.745. Further, the relative viability worked out at 0.761 with Seliciclib + Alpelisib (first compound 0.253 µM); 0.814 with Seliciclib + Alpelisib (first compound 0.8 µM); 0.973 with Seliciclib + Alpelisib (first compound 2.53 µM); 0.792 in the experiment with Seliciclib + Alpelisib (first compound 8 µM); 0.474 with Seliciclib + Pemetrexed (first compound 0.08 µM); 0.54 with Seliciclib + Pemetrexed (first compound 0.253 µM). Moreover, the relative viability in the experiment with Seliciclib + Pemetrexed (first compound 0.8 µM) came to 0.488; with Seliciclib + Pemetrexed (first compound 2.53 µM), 0.471; in the experiment with Seliciclib + Pemetrexed (first compound 8 µM), 0.441; with Seliciclib + Olaparib (first compound 0.08 µM) it was 0.963; with Seliciclib + Olaparib (first compound 0.253 µM), 0.883; with Seliciclib + Olaparib (first compound 0.8 µM) it was 0.937. For the same cell line, the relative viability with Seliciclib + Olaparib (first compound 2.53 µM) turned out to be 0.823; with Seliciclib + Olaparib (first compound 8 µM) it was 0.708.

For SK-LU-1, the relative viability with Seliciclib + Bortezomib (first compound 0.08 µM) amounted to 1.07; with Seliciclib + Bortezomib (first compound 0.253 µM), 1.23; in the experiment with Seliciclib + Bortezomib (first compound 0.8 µM) it was 1.3; in the experiment with Seliciclib + Bortezomib (first compound 2.53 µM) it was 1.08; in the experiment with Seliciclib + Bortezomib (first compound 8 µM), 0.771; with Seliciclib + Alpelisib (first compound 0.08 µM), 1. Moreover, the relative viability stood at 1.05 with Seliciclib + Alpelisib (first compound 0.253 µM); 1.04 with Seliciclib + Alpelisib (first compound 0.8 µM); 0.795 in the experiment with Seliciclib + Alpelisib (first compound 2.53 µM); 0.636 with Seliciclib + Alpelisib (first compound 8 µM); 0.992 in the experiment with Seliciclib + Pemetrexed (first compound 0.08 µM); 1.08 in the experiment with Seliciclib + Pemetrexed (first compound 0.253 µM). Moreover, the relative viability with Seliciclib + Pemetrexed (first compound 0.8 µM) turned out to be 1.04; with Seliciclib + Pemetrexed (first compound 2.53 µM) it was 0.952; in the experiment with Seliciclib + Pemetrexed (first compound 8 µM), 0.597; in the experiment with Seliciclib + Olaparib (first compound 0.08 µM), 0.411; with Seliciclib + Olaparib (first compound 0.253 µM), 0.543; in the experiment with Seliciclib + Olaparib (first compound 0.8 µM), 0.478. For the same cell line, the relative viability in the experiment with Seliciclib + Olaparib (first compound 2.53 µM) was found to be 0.404; in the experiment with Seliciclib + Olaparib (first compound 8 µM), 0.34.

As for SW 1573, the relative viability was 0.923 in the experiment with Seliciclib + Bortezomib (first compound 0.08 µM); 0.876 in the experiment with Seliciclib + Bortezomib (first compound 0.253 µM); 1.02 with Seliciclib + Bortezomib (first compound 0.8 µM); 1.02 in the experiment with Seliciclib + Bortezomib (first compound 2.53 µM); 0.868 with Seliciclib + Bortezomib (first compound 8 µM); 0.653 with Seliciclib + Alpelisib (first compound 0.08 µM). The relative viability was determined as 0.805 with Seliciclib + Alpelisib (first compound 0.253 µM); 0.786 in the experiment with Seliciclib + Alpelisib (first compound 0.8 µM); 0.712 in the experiment with Seliciclib + Alpelisib (first compound 2.53 µM); 0.567 with Seliciclib + Alpelisib (first compound 8 µM); 0.875 with Seliciclib + Pemetrexed (first compound 0.08 µM); 0.723 in the experiment with Seliciclib + Pemetrexed (first compound 0.253 µM). Moreover, the relative viability with Seliciclib + Pemetrexed (first compound 0.8 µM) was determined as 0.886; with Seliciclib + Pemetrexed (first compound 2.53 µM) it was 0.791; in the experiment with Seliciclib + Pemetrexed (first compound 8 µM) it was 0.731; with Seliciclib + Olaparib (first compound 0.08 µM) it was 0.473; in the experiment with Seliciclib + Olaparib (first compound 0.253 µM), 0.487; with Seliciclib + Olaparib (first compound 0.8 µM), 0.527. For the same cell line, the relative viability with Seliciclib + Olaparib (first compound 2.53 µM) turned out to be 0.471; with Seliciclib + Olaparib (first compound 8 µM), 0.425.

UMC-11: the relative viability with Seliciclib + Bortezomib (first compound 0.08 µM) worked out at 0.715; with Seliciclib + Bortezomib (first compound 0.253 µM), 0.932; in the experiment with Seliciclib + Bortezomib (first compound 0.8 µM), 0.831; with Seliciclib + Bortezomib (first compound 2.53 µM), 0.827; in the experiment with Seliciclib + Bortezomib (first compound 8 µM) it was 0.529; with Seliciclib + Alpelisib (first compound 0.08 µM), 0.856. Also, the relative viability in the experiment with Seliciclib + Alpelisib (first compound 0.253 µM) stood at 0.896; with Seliciclib + Alpelisib (first compound 0.8 µM), 0.995; in the experiment with Seliciclib + Alpelisib (first compound 2.53 µM) it was 1.24; with Seliciclib + Alpelisib (first compound 8 µM) it was 0.823; with Seliciclib + Pemetrexed (first compound 0.08 µM) it was 0.741; with Seliciclib + Pemetrexed (first compound 0.253 µM), 0.753. Further, the relative viability stood at 0.789 with Seliciclib + Pemetrexed (first compound 0.8 µM); 0.78 with Seliciclib + Pemetrexed (first compound 2.53 µM); 0.594 in the experiment with Seliciclib + Pemetrexed (first compound 8 µM); 0.367 in the experiment with Seliciclib + Olaparib (first compound 0.08 µM); 0.388 with Seliciclib + Olaparib (first compound 0.253 µM); 0.381 in the experiment with Seliciclib + Olaparib (first compound 0.8 µM). The figures for the relative viability in the experiment with Seliciclib + Olaparib (first compound 2.53 µM) and with Seliciclib + Olaparib (first compound 8 µM) were 0.352 and 0.293, respectively.

Source of the values: the supplement of paper PMC10307832.
